ChEMBL document CHEMBL1129165, “6-Deoxy-6-hydroxymethyl scyllo-inositol 1,2,4-trisphosphate: A potent agonist at the inositol 1,4,5-trisphosphate receptor” (Bioorg Med Chem Lett, 1996)

Species on record: Oryctolagus cuniculus
Test: Compound was tested for its ability to release [Ca2+] from permeabilised rabbit platelets.
Type: functional, organism-based

Compound | EC50 (Oryctolagus cuniculus) [nM] | EC50 [nM]
O=P(O)(O)OC1[C@@H](O)C(CO)C(OP(=O)(O)O)[C@H](OP(=O)(O)O)[C@@H]1O (stereo partly drawn) | 440 | 
O=P(O)(O)O[C@H]1C(O)[C@@H](OP(=O)(O)O)[C@H](OP(=O)(O)O)[C@@H](O)C1O (single isomer, unassigned) [INS(1,4,5)P3] |  | 1670
O=P(O)(O)O[C@@H]1[C@@H](O)[C@@H](O)[C@@H](OP(=O)(O)O)C(O)[C@H]1OP(=O)(O)O (single isomer, unassigned) [INS(1,4,5)P3] |  | 400
